For the test, the target named is recombinant human PKR enzyme (Homo sapiens (Human), UniProt P30613). Kind of test: Pyruvate kinase (PKR) activity experiment. The class given is biochemical. The note with it: activation of recombinant human PKR enzyme. The protocol: • 1). A recombinant human PKR enzyme solution was formulated at a concentration of 60 ng/well (a 20 μL reaction system), and 5 μL of the solution was added into each well of a black transparent bottom 384-well plate. • 2). Compound solutions were formulated at different concentrations, with the final concentrations of 1000/300/100 nM (containing 1% DMSO). Each 5 μL of the compound solution was added into the plate in item 3.1 and mixed well. The plate was incubated at room temperature for 10 min. • 3). A reaction system was formulated according to the instructions of a kit (as shown in the table below), and 10 μL of the reaction system was added into each well of the 384-well plate, and mixed uniformly with the solution in item 3.2.
Sequence of recombinant human PKR enzyme (P30613 whole entry): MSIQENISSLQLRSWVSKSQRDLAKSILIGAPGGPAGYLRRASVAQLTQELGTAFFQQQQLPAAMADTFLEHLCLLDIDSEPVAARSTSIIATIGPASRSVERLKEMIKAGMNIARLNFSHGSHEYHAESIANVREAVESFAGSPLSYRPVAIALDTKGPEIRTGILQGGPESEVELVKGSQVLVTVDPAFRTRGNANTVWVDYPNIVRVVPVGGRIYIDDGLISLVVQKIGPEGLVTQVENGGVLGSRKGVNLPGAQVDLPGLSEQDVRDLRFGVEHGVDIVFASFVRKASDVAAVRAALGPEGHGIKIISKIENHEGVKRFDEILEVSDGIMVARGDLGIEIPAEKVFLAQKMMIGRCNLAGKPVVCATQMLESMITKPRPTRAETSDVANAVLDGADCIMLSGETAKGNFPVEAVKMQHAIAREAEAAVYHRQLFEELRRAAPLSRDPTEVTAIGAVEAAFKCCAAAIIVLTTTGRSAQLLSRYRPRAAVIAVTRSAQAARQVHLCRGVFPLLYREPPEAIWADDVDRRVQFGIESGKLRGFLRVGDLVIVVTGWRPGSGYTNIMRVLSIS
• 4). The 384-well plate was placed on a microplate reader to detect the fluorescence value at 540/590 nm, where the value was read every 2 minutes and the detection was conducted continuously for 1 hour. • 5). The Slope value within the detection time was calculated, and the 0.1% DMSO well was used as a control well to calculate a compound activation rate.
[formula] • 6). Fitting dose-effect curve
With the log value of the compound concentration as the X axis and the percentage activation rate as the Y axis, a dose-effect curve was fitted with the log(agonist) vs. response-variable slope of the analysis software GraphPad Prism 5, and the AC50 value of the activity of each compound against PKR was obtained.

Regarding `CN1C(=O)COc2ccc(S(=O)(=O)N3CC(=C4CN(C(=O)[C@H](CO)c5ccccc5)C4)C3)cc21` [Compound 41, (S)-6-((1′-(3-hydroxy-2-phenylpropionyl)-1′,4′-dihydro-2H,2′H-[3,3′-diazetidinylidene]-1(4H)-yl)sulfonyl)-4-methyl-2H-benzo[b][1,4]oxazine-3(4H)-one], the half-maximal activity concentration (AC50) fell in the range of 300 to 1000 nM.

As to `CN(C)CC(C(=O)N1CC(=C2CN(S(=O)(=O)c3ccc4ncsc4c3)C2)C1)c1ccc(F)c(Cl)c1` (stereo not drawn) [Compound 42, 1-(1′-(benzo[d]thiazol-6-ylsulfonyl)-1′,4′-dihydro-2H,2′H-[3,3′-diazetidinylidene]-1(4H)-yl)-2-(3-chloro-4-fluorophenyl)-3-(dimethylamino)propan-1-one], the AC50 was 300 to 1000 nM.

As for `CN1CCN(c2cccc(C(O)C(=O)N3CC(=C4CN(S(=O)(=O)c5ccc6ncsc6c5)C4)C3)c2)CC1` (stereo not drawn) [Compound 43, 1-(1′-(benzo[d]thiazol-6-ylsulfonyl)-1′,4′-dihydro-2H,2′H-[3,3′-diazetidinylidene]-1(4H)-yl)-2-hydroxy-2-(3-(4-methylpiperazin-1-yl)phenyl)ethan-1-one], the AC50 is 300 to 1000 nM.

As for `COc1ccc(C(CO)C(=O)N2CC(=C3CN(S(=O)(=O)c4ccc5ncsc5c4)C3)C2)cc1` (stereo not drawn) [Compound 44, 1-(1′-(benzo[d]thiazol-6-ylsulfonyl)-1′,4′-dihydro-2H,2′H-[3,3′-diazetidinylidene]-1(4H)-yl)-3-hydroxy-2-(4-methoxyphenyl)propan-1-one], the concentration at half-maximal activity (AC50) is below 100 nM.

In the case of `Cc1ccc(C(CO)C(=O)N2CC(=C3CN(S(=O)(=O)c4ccc5ncsc5c4)C3)C2)cc1` (stereo not drawn) [Compound 45, 1-(1′-(benzo[d]thiazol-6-ylsulfonyl)-1′,4′-dihydro-2H,2′H-[3,3′-diazetidinylidene]-1(4H)-yl)-3-hydroxy-2-(p-tolyl)propan-1-one], the concentration at half-maximal activity (AC50) is below 100 nM.

In the case of `O=C(C(CO)c1cccc(F)c1)N1CC(=C2CN(S(=O)(=O)c3ccc4ncsc4c3)C2)C1` (stereo not drawn) [Compound 46, 1-(1′-(benzo[d]thiazol-6-ylsulfonyl)-1′,4′-dihydro-2H,2′H-[3,3′-diazetidinylidene]-1(4H)-yl)-2-(3-fluorophenyl)-3-hydroxypropan-1-one], the AC50 was below 100 nM.

For the compound `O=C(C(CO)c1cccnc1)N1CC(=C2CN(S(=O)(=O)c3ccc4ncsc4c3)C2)C1` (stereo not drawn) [Compound 48, 1-(1′-(benzo[d]thiazol-6-ylsulfonyl)-1′,4′-dihydro-2H,2′H-[3,3′-diazetidinylidene]-1(4H)-yl)-3-hydroxy-2-(pyridin-3-yl)propan-1-one], the concentration at half-maximal activity (AC50) was in the range of 101 to 300 nM.

Take `O=C([C@H](CO)c1ccccc1)N1CC(=C2CN(S(=O)(=O)c3ccc4c(n3)OCCO4)C2)C1` [Compound 49, (S)-1-(1′-((2,3-dihydro-[1,4]dioxino[2,3-b]pyridin-6-yl)sulfonyl)-1′,4′-dihydro-2H,2′H-[3,3′-diazetidinylidene]-1(4H)-yl)-3-hydroxy-2-phenylpropan-1-one]: the AC50 is below 100 nM.

`O=C([C@@H](CO)c1ccc(F)cc1)N1CC(=C2CN(S(=O)(=O)c3ccc4ncsc4c3)C2)C1` [Compound 51, (R)-1-(1′-(benzo[d]thiazol-6-ylsulfonyl)-1′,4′-dihydro-2H,2′H-[3,3′-diazetidinylidene]-1(4H)-yl)-2-(4-fluorophenyl)-3-hydroxypropan-1-one]: the AC50 was in the range of 300 to 1000 nM.

Regarding `O=C([C@H](CO)c1ccc(F)cc1)N1CC(=C2CN(S(=O)(=O)c3ccccn3)C2)C1` [Compound 54, (S)-2-(4-fluorophenyl)-3-hydroxy-1-(1′-(pyridin-2-ylsulfonyl)-1′,4′-dihydro-2H,2′H-[3,3′-diazetidinylidene]-1(4H)-yl)propan-1-one], the AC50 is below 100 nM.

`O=C([C@@H](CO)c1ccc(F)cc1)N1CC(=C2CN(S(=O)(=O)c3ccccn3)C2)C1` [Compound 55, (R)-2-(4-fluorophenyl)-3-hydroxy-1-(1′-(pyridin-2-ylsulfonyl)-1′,4′-dihydro-2H,2′H-[3,3′-diazetidinylidene]-1(4H)-yl)propan-1-one]: the AC50 was in the range of 300 to 1000 nM.

As to `O=C(C(CO)c1ccc(F)c(Cl)c1)N1CC(=C2CN(S(=O)(=O)c3ccccn3)C2)C1` (stereo not drawn) [Compound 59, 2-(3-chloro-4-fluorophenyl)-3-hydroxy-1-(1′-(pyridin-2-ylsulfonyl)-1′,4′-dihydro-2H,2′H-[3,3′-diazetidinylidene]-1(4H)-yl)propan-1-one], the AC50 was in the range of 101 to 300 nM.

Take `O=C(C(CO)c1ccc(F)c(F)c1)N1CC(=C2CN(S(=O)(=O)c3ccccn3)C2)C1` (stereo not drawn) [Compound 61, 2-(3,4-difluorophenyl)-3-hydroxy-1-(1′-(pyridin-2-ylsulfonyl)-1′,4′-dihydro-2H,2′H-[3,3′-diazetidinylidene]-1(4H)-yl)propan-1-one]: the half-maximal activity concentration (AC50) is 300 to 1000 nM.

For the compound `Cn1cnc2ccc(S(=O)(=O)N3CC(=C4CN(C(=O)[C@H](CO)c5ccccc5)C4)C3)cc21` [Compound 63, (S)-3-hydroxy-1-(1′-((1-methyl-1H-benzimidazol-6-yl)sulfonyl)-1′,4′-dihydro-2H,2′H-[3,3′-diazetidinylidene]-1(4H)-yl)-2-phenylpropan-1-one], the AC50 is 101 to 300 nM.

For the compound `N#Cc1ccc(S(=O)(=O)N2CC(=C3CN(C(=O)[C@H](CO)c4ccccc4)C3)C2)cc1` [Compound 65, (S)-4-(1′-(3-hydroxy-2-phenylpropionyl)-1′,4′-dihydro-2H,2′H-[3,3′-diazetidinylidene]-1(4H)-ylsulfonyl)benzonitrile], the AC50 fell in the range of 101 to 300 nM.

Turning to `O=C([C@H](CO)c1ccccc1)N1CC(=C2CN(S(=O)(=O)c3ccc(Cl)cn3)C2)C1` [Compound 66], the AC50 is 101 to 300 nM.

With `COc1ccc(S(=O)(=O)N2CC(=C3CN(C(=O)[C@H](CO)c4ccccc4)C3)C2)nc1` [Compound 67, (S)-3-hydroxy-1-(1′-((5-methoxypyridin-2-yl)sulfonyl)-1′,4′-dihydro-2H,2′H-[3,3′-diazetidinylidene]-1(4H)-yl)-2-phenylpropan-1-one], the AC50 was below 100 nM.

For the compound `O=C([C@H](CO)c1ccccc1)N1CC(=C2CN(S(=O)(=O)c3cccnc3)C2)C1` [Compound 68, (S)-3-hydroxy-2-phenyl-1-(1′-(pyridin-3-ylsulfonyl)-1′,4′-dihydro-2H,2′H-[3,3′-diazetidinylidene]-1(4H)-yl)propane-1-one], the AC50 is 300 to 1000 nM.

For the compound `O=C([C@H](CO)c1ccccc1)N1CC(=C2CN(S(=O)(=O)c3cccc4cccnc34)C2)C1` [Compound 69, (S)-3-hydroxy-2-phenyl-1-(1′-(quinolin-8-ylsulfonyl)-1′,4′-dihydro-2H,2′H-[3,3′-diazetidinylidene]-1(4H)-yl)propan-1-one], the AC50 is below 100 nM.

As for `N#Cc1ccc(S(=O)(=O)N2CC(=C3CN(C(=O)[C@H](CO)c4ccccc4)C3)C2)nc1` [Compound 70, (S)-6-((1′-(3-hydroxy-2-phenylpropionyl)-1′,4′-dihydro-2H,2′H-[3,3′-diazetidinylidene]-1(4H)-yl)sulfonyl)nicotinonitrile], the concentration at half-maximal activity (AC50) lay in the range of 300 to 1000 nM.

For the compound `O=C(C(CO)c1ccc(C(F)F)cc1)N1CC(=C2CN(S(=O)(=O)c3ccccn3)C2)C1` (stereo not drawn) [Compound 71, 2-(4-(difluoromethyl)phenyl)-3-hydroxy-1-(1′-(pyridin-2-ylsulfonyl)-1′,4′-dihydro-2H,2′H-[3,3′-diazetidinylidene]-1(4H)-yl)propan-1-one], the concentration at half-maximal activity (AC50) is below 100 nM.

Take `CCOc1ccc(S(=O)(=O)N2CC(=C3CN(C(=O)[C@H](CO)c4ccccc4)C3)C2)nc1` [Compound 72, (S)-1-(1′-((5-ethoxypyridin-2-yl)sulfonyl)-1′,4′-dihydro-2H,2′H-[3,3′-diazetidinylidene]-1(4H)-yl)-3-hydroxy-2-phenylpropan-1-one]: the half-maximal activity concentration (AC50) is below 100 nM.

As for `O=C(C(CO)c1ccc(Cl)cc1)N1CC(=C2CN(S(=O)(=O)c3ccccn3)C2)C1` (stereo not drawn) [Compound 75, 2-(4-chlorophenyl)-3-hydroxy-1-(1′-(pyridin-2-ylsulfonyl)-1′,4′-dihydro-2H,2′H-[3,3′-diazetidinylidene]-1(4H)-yl)propan-1-one], the concentration at half-maximal activity (AC50) fell in the range of 101 to 300 nM.

With `O=C([C@@H](CO)c1ccc(F)c(Cl)c1)N1CC(=C2CN(S(=O)(=O)c3ccccn3)C2)C1` [Compound 76, (R)-2-(3-chloro-4-fluorophenyl)-3-hydroxy-1-(1′-(pyridin-2-ylsulfonyl)-1′,4′-dihydro-2H,2′H-[3,3′-diazetidinylidene]-1(4H)-yl)propan-1-one], the AC50 was 300 to 1000 nM.

With `O=C([C@H](CO)c1ccc(F)c(Cl)c1)N1CC(=C2CN(S(=O)(=O)c3ccccn3)C2)C1` [Compound 77, (S)-2-(3-chloro-4-fluorophenyl)-3-hydroxy-1-(1′-(pyridin-2-ylsulfonyl)-1′,4′-dihydro-2H,2′H-[3,3′-diazetidinylidene]-1(4H)-yl)propan-1-one], the half-maximal activity concentration (AC50) was below 100 nM.

Consider `O=C([C@H](CO)c1ccccc1)N1CC(=C2CN(S(=O)(=O)c3ccc(OC(F)F)cn3)C2)C1` [Compound 80, (S)-1-(1′-((5-(difluoromethoxy)pyridin-2-yl)sulfonyl)-1′,4′-dihydro-2H,2′H-[3,3′-diazetidinylidene]-1(4H)-yl)-3-hydroxy-2-phenylpropan-1-one], for which the AC50 was below 100 nM.

Take `CC(C)Oc1ccc(S(=O)(=O)N2CC(=C3CN(C(=O)[C@H](CO)c4ccccc4)C3)C2)nc1` [Compound 81, (S)-3-hydroxy-1-(1′-((5-isopropoxypyridin-2-yl)sulfonyl)-1′,4′-dihydro-2H,2′H-[3,3′-diazetidinylidene]-1(4H)-yl)-2-phenylpropan-1-one]: the AC50 fell in the range of 101 to 300 nM.

Usually AC50 stands for the concentration giving half of the maximal activity seen.

Source of the values: patent publication US20250145635A1, “COMPOUND CONTAINING BIS(AZANYLYLIDENE) SULFONYL STRUCTURE AND USE THEREOF IN MEDICINE” (SCINNOHUB PHARMACEUTICAL CO., LTD., priority 2021, published 2025).
